Columns and labels:
[1] = test system: human colorectal cancer cell line HCT-8 cells; assay: Cadmium block of calcium channels (sensor device response); assay type: cell-based
Description: (§1) In the present example, the sensor device 200 shown in FIG. 2 was used for detection, wherein the distance between the response electrode of the sensor device and the gate end: 65 μm; and the area of the detection region: 10×60 μm^2. Moreover, a specific aptamer of a human colorectal cancer cell line HCT-8 cell was bonded to the response electrode of the sensor device.
(§2) In the present embodiment, source and drain properties were measured and recorded using an Agilent B1530/B1500A semiconductor parameter analyzer. Operating conditions: VD=2.5 V; Vg=2 V; pulse duration=50 μs. The change in source current before and after a gate bias is applied is defined as the current gain.
In the present embodiment, human colorectal cancer cell line HCT-8 cells were used as the target cells. The HCT-8 cells were cultured in an RPMI-1640 cell culture medium (Invitrogen Co., USA). […]
In experimental example 3, HBSS w/Ca and HBSS w/Ca containing different cadmium ion concentrations (5 uM, 10 uM, 20 uM, 50 uM, and 100 uM) are used as reference solutions, and the baselines of the sensor device were calculated using the reference solutions. […]

[2] = test system: human colorectal cancer cell line HCT-8 cells; assay: Sensor device response to depolarization induced by KCl; assay type: cell-based
Description: as §1, §2
In the present embodiment, human colorectal cancer cell line HCT-8 cells were used as the target cells. The HCT-8 cells were cultured in an RPMI-1640 cell culture medium (Invitrogen Co., USA). During a subsequent electrical measurement, the HCT-8 cells were suspended in a Hank balanced salt solution having calcium ions and magnesium ions (hereinafter HBSS w/Ca&Mg), a Hank balanced salt solution without calcium ions and magnesium ions (hereinafter HBSS w/o Ca&Mg), or a Hank balanced salt solution having calcium ions (hereinafter HBSS w/Ca) to prepare a test solution. In the Hank balanced salt solution having calcium ions and magnesium ions (HBSS w/Ca&Mg), the calcium ions were 1.2 mM and the magnesium ions are 0.8 mM. […]

SMILES | value of the detection current (Δ current gain) ([1]; cadmium concentration further increased from 20 μM to 100 μM in HBSS w/Ca, cells depolarized) | detection current (Δ current gain) ([1]; cadmium ion concentrations of 10 μM and 20 μM in HBSS w/Ca, cells repolarized) | value of the detection current (second current gain minus first current gain, Δ current gain) ([2]; KCl concentration of 5 mM in HBSS w/Ca&Mg, cells have polarized potential) | value of the detection current (second current gain minus first current gain, Δ current gain) ([2]; KCl concentration of 10 mM to 30 mM in HBSS w/Ca&Mg, cells depolarized)
[Cd+2] [cadmium ion] | negative | positive |  | 
[Cl-].[K+] [KCl] |  |  | positive | negative

Source: patent US11029279B2, “Method of detecting cells” (National Tsing Hua University, priority 2018, dated 2021)
